Assay results: patent US5126336A, “Antibiotic C-3 catechol-substituted cephalosporin compounds, compositions and method of use thereof” (Bristol-Myers Squibb Company, priority 1990, dated 1992)
Converted amounts (≈) assume the structure as drawn.

Key:
Type in all cases: cell-based
[1] = test system: Gn-III: Ps. aeruginosa (7); experiment: MIC, two-fold serial agar dilution, Gn-III; settings: Pseudomonas aeruginosa, Gn-III, 7 strains; Mueller-Hinton agar; read-out: Geometric mean of MIC
Description: (§1) Minimum inhibitory concentrations (MICs) of the present series of cephalosporins were determined against 32 strains of test organisms by two-fold serial agar dilution method in Mueller-Hinton agar. Geometric means of MICs were calculated against six groups of the test organisms which are classified as follows and summarized in Table 1.
Gn-III Ps. aeruginosa (7).

[2] = test system: Gn-II: M.morganii (1), Ent. cloacae (2) and Ser. marcescens (2); experiment: MIC, two-fold serial agar dilution, Gn-II; settings: Gn-II, 5 strains; Mueller-Hinton agar; read-out: Geometric mean of MIC
Description: as §1
Gn-II M.morganii (1), Ent. cloacae (2) and Ser.

[3] = test system: Gn-Ia: Cephalothin(CET)-sensitive E. coli (2), Kl. pneumoniae (1) and Pr. mirabilis (2); experiment: MIC, two-fold serial agar dilution, Gn-Ia; settings: 5 strains, Mueller-Hinton agar, read-out: Geometric mean of MIC
Description: as §1
Gn-Ia Cephalothin(CET)-sensitive E. coli (2), Kl.
pneumoniae (1) and Pr. mirabilis (2).

[4] = test system: Gp-Ia: Penicillin(PC)-sensitive S. aureus (5 strains); experiment: MIC, two-fold serial agar dilution, Gp-Ia; settings: Staphylococcus aureus, Mueller-Hinton agar, read-out: Geometric mean of MIC
Description: as §1
Gp-Ia Penicillin(PC)-sensitive S. aureus (5 strains).

[5] = test system: Gp-Ib: Penicillin(PC)-resistant S. aureus (5); experiment: MIC, two-fold serial agar dilution, Gp-Ib; settings: Staphylococcus aureus, 5 strains, Mueller-Hinton agar, read-out: Geometric mean of MIC
Description: as §1
Gp-Ib Penicillin(PC)-resistant S. aureus (5).

[6] = test system: Gn-Ib: Cephalothin(CET)-resistant E. coli (3) and Kl. pneumoniae (2); experiment: MIC, two-fold serial agar dilution, Gn-Ib; settings: Escherichia coli, read-out: Geometric mean of MIC, Gn-Ib, 5 strains; Mueller-Hinton agar
Description: as §1
Gn-Ib Cephalothin(CET)-resistant E. coli (3) and Kl.

E. faecalis A9808 = experiment: MIC, agar dilution; settings: Enterococcus faecalis, Mueller-Hinton agar pH 7.2, 32° C., 18 hr, 10^6 cells/ml
Description: as §1
(§2) Medium; MuellerHinton agar (pH = 7.2)
(§3) Incubation temperature: 32° C., 18 hr
(§4) Inoculum size; 10^6 cells/ml

P. aeruginosa A20599 = experiment: MIC, agar dilution; settings: Pseudomonas aeruginosa, Mueller-Hinton agar pH 7.2, 32° C., 18 hr, 10^6 cells/ml
Description: as §1, §2, §3, §4

S. aureus 209P = experiment: MIC, agar dilution; settings: Staphylococcus aureus; S. aureus 209P; Mueller-Hinton agar pH 7.2; 32° C., 18 hr; 10^6 cells/ml; read-out: MIC
Description: as §1, §2, §3, §4

M. luteus 1001 = experiment: MIC, agar dilution; settings: Micrococcus luteus, Mueller-Hinton agar pH 7.2, 32° C., 18 hr, 10^6 cells/ml
Description: as §1, §2, §3, §4

X. maltophilia GN 12873 = experiment: MIC, agar dilution; settings: Stenotrophomonas maltophilia, GN12873, Mueller-Hinton agar pH 7.2, 32° C., 18 hr, 10^6 cells/ml
Description: as §1, §2, §3, §4

P. aeruginosa IPM-9 = experiment: MIC, agar dilution; settings: Pseudomonas aeruginosa, IPM9, Mueller-Hinton agar pH 7.2, 32° C., 18 hr, 10^6 cells/ml
Description: as §1, §2, §3, §4

P. mirabilis IFO-2849 = experiment: MIC, agar dilution; settings: Proteus mirabilis, IFO2849, Mueller-Hinton agar pH 7.2, 32° C., 18 hr, 10^6 cells/ml
Description: as §1, §2, §3, §4

S. marcescens IPM-16 = experiment: MIC, agar dilution; settings: Serratia marcescens, IPM16, Mueller-Hinton agar pH 7.2, 32° C., 18 hr, 10^6 cells/ml
Description: as §1, §2, §3, §4

E. faecium A24817 = experiment: MIC, agar dilution; settings: Enterococcus faecium, Mueller-Hinton agar pH 7.2, 32° C., 18 hr, 10^6 cells/ml
Description: as §1, §2, §3, §4

E. coli 255 = experiment: MIC, agar dilution; settings: Escherichia coli, Mueller-Hinton agar pH 7.2, 32° C., 18 hr, 10^6 cells/ml
Description: as §1, §2, §3, §4

X. maltophilia No. 661 = experiment: MIC, agar dilution; settings: Stenotrophomonas maltophilia, Mueller-Hinton agar pH 7.2, 32° C., 18 hr, 10^6 cells/ml
Description: as §1, §2, §3, §4

C. freundii GN 7391 = experiment: MIC, agar dilution; settings: Citrobacter freundii, GN7391, Mueller-Hinton agar pH 7.2, 32° C., 18 hr, 10^6 cells/ml
Description: as §1, §2, §3, §4

K. pneumoniae PCI 602 = experiment: MIC, agar dilution; settings: Klebsiella pneumoniae, PCI602, Mueller-Hinton agar pH 7.2, 32° C., 18 hr, 10^6 cells/ml
Description: as §1, §2, §3, §4

S. aureus IPM-24 (MRSA) = experiment: MIC, agar dilution; settings: Staphylococcus aureus, Mueller-Hinton agar pH 7.2, 32° C., 18 hr, 10^6 cells/ml
Description: as §1, §2, §3, §4

P. vulgaris IPM-13 = experiment: MIC, agar dilution; settings: Proteus vulgaris, IPM13, Mueller-Hinton agar pH 7.2, 32° C., 18 hr, 10^6 cells/ml
Description: as §1, §2, §3, §4

S. epidermidis 11-1230 = experiment: MIC, agar dilution; settings: Staphylococcus epidermidis, 111230, Mueller-Hinton agar pH 7.2, 32° C., 18 hr, 10^6 cells/ml
Description: as §1, §2, §3, §4

P. cepacia No. 651 = experiment: MIC, agar dilution; settings: Burkholderia cepacia, Mueller-Hinton agar pH 7.2, 32° C., 18 hr, 10^6 cells/ml
Description: as §1, §2, §3, §4

M. morgani 1510 = experiment: MIC, agar dilution; settings: Mueller-Hinton agar pH 7.2, 32° C., 18 hr, 10^6 cells/ml
Description: as §1, §2, §3, §4

S. marcescens IPM-15 = experiment: MIC, agar dilution; settings: Serratia marcescens, IPM15, Mueller-Hinton agar pH 7.2, 32° C., 18 hr, 10^6 cells/ml
Description: as §1, §2, §3, §4

B. subtilis PCI 219 = experiment: MIC, agar dilution; settings: Bacillus subtilis, PCI219, Mueller-Hinton agar pH 7.2, 32° C., 18 hr, 10^6 cells/ml
Description: as §1, §2, §3, §4

P. cepacia A21213 = experiment: MIC, agar dilution; settings: Burkholderia cepacia, Mueller-Hinton agar pH 7.2, 32° C., 18 hr, 10^6 cells/ml
Description: as §1, §2, §3, §4

P. rettgeri IPM-14 = experiment: MIC, agar dilution; settings: Providencia rettgeri, IPM14, Mueller-Hinton agar pH 7.2, 32° C., 18 hr, 10^6 cells/ml
Description: as §1, §2, §3, §4

S. aureus 4-1015 (MRSA) = experiment: MIC, agar dilution; settings: Staphylococcus aureus, Mueller-Hinton agar pH 7.2, 32° C., 18 hr, 10^6 cells/ml
Description: as §1, §2, §3, §4

M. morgani 1510/9 = experiment: MIC, agar dilution; settings: Mueller-Hinton agar pH 7.2, 32° C., 18 hr, 10^6 cells/ml
Description: as §1, §2, §3, §4

P. aeruginosa IPM-8 = experiment: MIC, agar dilution; settings: Pseudomonas aeruginosa, IPM8, Mueller-Hinton agar pH 7.2, 32° C., 18 hr, 10^6 cells/ml
Description: as §1, §2, §3, §4

C. terrigena IFO 12685 = experiment: MIC, agar dilution; settings: Mueller-Hinton agar pH 7.2, 32° C., 18 hr, 10^6 cells/ml
Description: as §1, §2, §3, §4

E. cloacae IPM-12 = experiment: MIC, agar dilution; settings: Enterobacter cloacae, IPM12, Mueller-Hinton agar pH 7.2, 32° C., 18 hr, 10^6 cells/ml
Description: as §1, §2, §3, §4

P. aeruginosa KKA 19 = experiment: MIC, agar dilution; settings: Pseudomonas aeruginosa, KKA19, Mueller-Hinton agar pH 7.2, 32° C., 18 hr, 10^6 cells/ml
Description: as §1, §2, §3, §4

S. aureus Smith = experiment: MIC, agar dilution; settings: Staphylococcus aureus; S. aureus Smith; Mueller-Hinton agar pH 7.2; 32° C., 18 hr; 10^6 cells/ml; read-out: MIC
Description: as §1
(§5) In vivo antibacterial activity was determined against three bacterial infections (S. aureus Smith, E. coli Juhl and P. aeruginosa A9843A) by intramuscular administration to mice just after the bacterial challenge. PD50 values are summarized in Table 3 in comparsion with the MIC values against the corresponding organisms.
as §2, §3, §4

E. coli Juhl A15119 = experiment: MIC, agar dilution; settings: Escherichia coli, JUHLA15119; E. coli Juhl A15119; Mueller-Hinton agar pH 7.2; 32° C., 18 hr; 10^6 cells/ml; read-out: MIC
Description: as §1, §5, §2, §3, §4

P. aeruginosa A9843A = experiment: MIC, agar dilution; settings: Pseudomonas aeruginosa, A9843A, 18 h, pH 7.2
Description: as §1, §5, §2, §3, §4

CC(C)(O/N=C(\C(=O)NC1C(=O)N2C(C(=O)[O-])=C(/C=C/C[N+](C)(C)CCc3ccc(O)c(O)c3)CS[C@H]12)c1csc(N)n1)C(=O)O (stereo partly shown) [Iq, 7-[(Z)-2-(2-Aminothiazol-4-yl)-2-(1-carboxy-1-methylethoxy-imino)acetamido]-3-[(E)-3-(3,4-dihydroxyphenethyldimethyl-ammonio)-1-propen-1-yl]-3-cephem-4-carboxylate]
MIC [1]: 0.59 µg/mL (≈ 0.874 µM) | MIC [2]: 0.8 µg/mL (≈ 1.19 µM) | MIC [3]: 0.17 µg/mL (≈ 0.252 µM) | MIC [4]: 13 µg/mL (≈ 19.3 µM) | MIC [5]: 25 µg/mL (≈ 37.1 µM) | MIC [6]: 0.13 µg/mL (≈ 0.193 µM)

C[N+]1(C/C=C/C2=C(C(=O)[O-])N3C(=O)C(NC(=O)/C(=N\OCC(=O)O)c4csc(N)n4)C3SC2)Cc2cc(O)c(O)cc2C1 (stereo not shown) [Ih, 7-[(Z)-2-(2-Aminothiazol-4-yl)-2-carboxymethoxyimino-acetamido]-3-[3-(E)-(5,6-hydroxy-2-methyl-2-isoindolinio)-1-propen-1-yl]-3-cephem-4-carboxylate]
MIC [1]: 0.49 µg/mL (≈ 0.777 µM) | MIC [2]: 1.1 µg/mL (≈ 1.74 µM) | MIC [3]: 0.2 µg/mL (≈ 0.317 µM) | MIC [4]: 7.2 µg/mL (≈ 11.4 µM) | MIC [5]: 12.5 µg/mL (≈ 19.8 µM) | MIC [6]: 0.4 µg/mL (≈ 0.634 µM)

CC(C)(O/N=C(\C(=O)NC1C(=O)N2C(C(=O)O)=C(/C=C/Cn3cnc4cc(O)c(O)cc43)CS[C@H]12)c1csc(N)n1)C(=O)O (stereo partly shown) [Io, 7-[(Z)-2-(2-Aminothiazol-4-yl)-2-(1-methyl-1-carboxyethoxy-imino)acetamido]-3-[(E)-3-(5,6-dihydroxybenzimidazol-1-yl)-1-propen-1-yl]-3-cephem-4-carboxylic acid]
MIC (E. faecalis A9808): > 100 µg/mL | MIC (P. aeruginosa A20599): 0.8 µg/mL (≈ 1.24 µM) | MIC (S. aureus 209P): 12.5 µg/mL (≈ 19.4 µM) | MIC (M. luteus 1001): 6.3 µg/mL (≈ 9.79 µM) | MIC (X. maltophilia GN 12873): 3.1 µg/mL (≈ 4.82 µM) | MIC (P. aeruginosa IPM-9): 25 µg/mL (≈ 38.8 µM) | MIC (P. mirabilis IFO-2849): 0.2 µg/mL (≈ 0.311 µM) | MIC (S. marcescens IPM-16): 25 µg/mL (≈ 38.8 µM) | MIC (E. faecium A24817): > 100 µg/mL | MIC (E. coli 255): 0.2 µg/mL (≈ 0.311 µM) | MIC (X. maltophilia No. 661): 1.6 µg/mL (≈ 2.49 µM) | MIC (C. freundii GN 7391): 25 µg/mL (≈ 38.8 µM) | MIC (K. pneumoniae PCI 602): 0.05 µg/mL (≈ 0.0777 µM) | MIC (S. aureus IPM-24 (MRSA)): 100 µg/mL (≈ 155 µM) | MIC (P. vulgaris IPM-13): 50 µg/mL (≈ 77.7 µM) | MIC (S. epidermidis 11-1230): 50 µg/mL (≈ 77.7 µM) | MIC (P. cepacia No. 651): 6.3 µg/mL (≈ 9.79 µM) | MIC (M. morgani 1510): 3.1 µg/mL (≈ 4.82 µM) | MIC (S. marcescens IPM-15): > 100 µg/mL | MIC (B. subtilis PCI 219): 12.5 µg/mL (≈ 19.4 µM) | MIC (P. cepacia A21213): 6.3 µg/mL (≈ 9.79 µM) | MIC (P. rettgeri IPM-14): 1.6 µg/mL (≈ 2.49 µM) | MIC (S. aureus 4-1015 (MRSA)): > 100 µg/mL | MIC (M. morgani 1510/9): 0.8 µg/mL (≈ 1.24 µM) | MIC (P. aeruginosa IPM-8): 0.4 µg/mL (≈ 0.621 µM) | MIC (C. terrigena IFO 12685): 3.1 µg/mL (≈ 4.82 µM) | MIC (E. cloacae IPM-12): 12.5 µg/mL (≈ 19.4 µM) | MIC (P. aeruginosa KKA 19): 0.8 µg/mL (≈ 1.24 µM) | MIC (S. aureus Smith): 25 µg/mL (≈ 38.8 µM) | MIC (E. coli Juhl A15119): 1.6 µg/mL (≈ 2.49 µM) | MIC (P. aeruginosa A9843A): 0.4 µg/mL (≈ 0.621 µM)
